Assay results taken from US20260028336A1 (Arcus Biosciences, Inc., priority 2022, published 2026).

Tests used:
Jurkat cells = assay: IL-2 secretion assay in CD3/CD28-activated Jurkat cells (AlphaLISA); type: cell-based; settings: Homo sapiens, CD3/CD28 T Cell Activator, 24 h, IL-2 AlphaLISA
How it was run: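 Jurkat cells (50,000/well) were preincubated 1 h at 37° C with compound in a 16-point 1:2 series spanning 10 μM to 300 pM final. Cells were then activated with CD3/CD28 T cell activator, and secreted IL-2 was read by AlphaLISA. EC50 came from 4-parameter logistic fits.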

Cbl-b = target: T1, Cbl-b (Homo sapiens, UniProt Q13191); assay: Cbl-b probe displacement HTRF binding assay; settings: 0.4 nM biotinylated Cbl-b, 150 nM BODIPY probe
T1 construct: biotin (biotinylated)
How it was run: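 Biotinylated Cbl-b was preincubated with compound for 60 min at room temperature in HEPES/NaCl/Triton/TCEP/BSA buffer. BODIPY probe was added for 15 min, followed by streptavidin-terbium, and the HTRF signal was read. Displacement was normalised to DMSO and no-protein controls, and affinity was obtained from a four-parameter dose-response fit.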

T1 sequence (Q13191 whole entry, species assumed): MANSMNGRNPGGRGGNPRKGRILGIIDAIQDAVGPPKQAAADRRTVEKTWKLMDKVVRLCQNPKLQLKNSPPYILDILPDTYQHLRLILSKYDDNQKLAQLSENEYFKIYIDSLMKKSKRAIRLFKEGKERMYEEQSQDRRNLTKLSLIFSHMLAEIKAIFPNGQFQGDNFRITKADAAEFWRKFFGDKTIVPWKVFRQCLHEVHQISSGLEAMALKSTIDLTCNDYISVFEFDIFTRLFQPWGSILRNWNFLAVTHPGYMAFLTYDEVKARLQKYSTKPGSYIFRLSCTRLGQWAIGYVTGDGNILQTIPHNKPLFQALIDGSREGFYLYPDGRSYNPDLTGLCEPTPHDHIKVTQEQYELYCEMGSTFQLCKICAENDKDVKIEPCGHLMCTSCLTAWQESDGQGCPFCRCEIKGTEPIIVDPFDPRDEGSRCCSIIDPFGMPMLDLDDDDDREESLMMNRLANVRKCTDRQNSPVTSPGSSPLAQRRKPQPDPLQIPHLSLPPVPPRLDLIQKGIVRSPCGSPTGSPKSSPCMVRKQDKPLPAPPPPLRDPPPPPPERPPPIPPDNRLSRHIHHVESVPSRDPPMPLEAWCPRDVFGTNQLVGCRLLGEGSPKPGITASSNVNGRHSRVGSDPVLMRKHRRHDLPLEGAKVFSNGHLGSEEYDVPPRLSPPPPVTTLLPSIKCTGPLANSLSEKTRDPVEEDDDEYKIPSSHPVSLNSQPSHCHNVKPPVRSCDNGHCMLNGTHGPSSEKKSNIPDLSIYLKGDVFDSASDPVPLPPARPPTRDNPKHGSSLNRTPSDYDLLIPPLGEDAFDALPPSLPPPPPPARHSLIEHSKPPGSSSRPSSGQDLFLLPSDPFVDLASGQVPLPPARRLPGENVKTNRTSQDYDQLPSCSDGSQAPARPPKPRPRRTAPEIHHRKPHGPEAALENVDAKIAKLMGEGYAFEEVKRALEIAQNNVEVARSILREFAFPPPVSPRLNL

SMILES | EC50 (Jurkat cells) [nM] | IC50 (Cbl-b) [nM]
Cn1cnnc1C1(c2cccc(-n3cc(C4CC4)c4cc(CN5CC[C@@H](F)[C@H](O)C5)[nH]c4c3=O)c2)CC(F)(F)C1 [Example 93, 4-cyclopropyl-6-{3-[3,3-difluoro-1-(4-methyl-4H-1,2,4-triazol-3-yl)cyclobutyl]phenyl}-2-{[(3R,4R)-4-fluoro-3-hydroxypiperidin-1-yl]methyl}-1H,6H,7H-pyrrolo[2,3-c]pyridin-7-one] | 1000 to 5000 | 100 to 1000
Cn1cnnc1[C@]1(c2cccc(-n3cc(C4CC4)c4nc[nH]c4c3=O)c2)C[C@@H](C)C1 (single isomer, unassigned) [Example 12, 7-cyclopropyl-5-{3-[(1s,3r)-3-methyl-1-(4-methyl-4H-1,2,4-triazol-3-yl)cyclobutyl]phenyl}-3H,4H,5H-imidazo[4,5-c]pyridin-4-one] | 1000 to 5000 | 100 to 1000
Cn1cnnc1C1(c2cccc(-n3cc(C4CC4)c4cc(CN[C@@H]5CCCS(=O)(=O)C5)[nH]c4c3=O)c2)CC(F)(F)C1 [Example 87, (3R)-3-{[(4-cyclopropyl-6-{3-[3,3-difluoro-1-(4-methyl-4H-1,2,4-triazol-3-yl)cyclobutyl]phenyl}-7-oxo-1H,6H,7H-pyrrolo[2,3-c]pyridin-2-yl)methyl]amino}-1λ^6-thiane-1,1-dione] | > 5000 | 100 to 1000
Cn1nncc1-c1c[nH]c2c(=O)n(-c3cccc([C@]4(c5nncn5C)C[C@@H](C)C4)c3)cc(C3CC3)c12 [Example 133, 4-Cyclopropyl-3-(1-methyl-1H-1,2,3-triazol-5-yl)-6-{3-[(1R,3S)-3-methyl-1-(4-methyl-4H-1,2,4-triazol-3-yl)cyclobutyl]phenyl}-1H,6H,7H-pyrrolo[2,3-c]pyridin-7-one] | > 5000 | < 100
Cn1cnnc1C1(c2cccc(-n3cc(C4CC4)c4cc(CN[C@@H]5CCOC5)[nH]c4c3=O)c2)CC(F)(F)C1 [Example 91, 4-cyclopropyl-6-{3-[3,3-difluoro-1-(4-methyl-4H-1,2,4-triazol-3-yl)cyclobutyl]phenyl}-2-{[(oxolan-3-yl)amino]methyl}-1H,6H,7H-pyrrolo[2,3-c]pyridin-7-one] | > 5000 | 100 to 1000
Cn1cnnc1[C@]1(c2cccc(-n3cc(C4CC4)c4[nH]c(=O)[nH]c4c3=O)c2)C[C@H](C)C1 (single isomer, unassigned) [Example 117, 7-cyclopropyl-5-[3-[cis-3-methyl-1-(4-methyl-1,2,4-triazol-3-yl)cyclobutyl]phenyl]-1,3-dihydroimidazo[4,5-c]pyridine-2,4-dione] | > 5000 | 100 to 1000
C[C@H]1CCCN(Cc2cc3c(C4CC4)cn(-c4cccc(C(C)(F)c5nccn5C)c4)c(=O)c3[nH]2)C1 (stereo partly drawn) [Example 164] | 1000 to 5000 | 1000 to 5000
CC(O)C1(NCc2cc3c(C4CC4)cn(-c4cccc(C5(c6nncn6C)CC(F)(F)C5)c4)c(=O)c3[nH]2)CC1 (stereo not drawn) [Example 84, 4-cyclopropyl-6-{3-[3,3-difluoro-1-(4-methyl-4H-1,2,4-triazol-3-yl)cyclobutyl]phenyl}-2-({[1-(1-hydroxyethyl)cyclopropyl]amino}methyl)-1H,6H,7H-pyrrolo[2,3-c]pyridin-7-one] | 1000 to 5000 | < 100
C[C@H]1CCCN(Cc2cc3c(C4CC4)cn(-c4cccc(C5(c6nncn6CC(F)(F)F)CC6(CC6)C5)c4)c(=O)c3[nH]2)C1 [Example 147, 4-Cyclopropyl-2-[[(3S)-3-methylpiperidin-1-yl]methyl]-6-[3-[5-[4-(2,2,2-trifluoroethyl)-1,2,4-triazol-3-yl]spiro[2.3]hexan-5-yl]phenyl]-1H-pyrrolo[2,3-c]pyridin-7-one] | 1000 to 5000 | < 100
Cn1cnnc1C1(c2cccc(-n3cc(C4CC4)c4cc(CN5CCC6(CC6)C5)[nH]c4c3=O)c2)CC(F)(F)C1 [Example 88, 2-({5-azaspiro[2.4]heptan-5-yl}methyl)-4-cyclopropyl-6-{3-[3,3-difluoro-1-(4-methyl-4H-1,2,4-triazol-3-yl)cyclobutyl]phenyl}-1H,6H,7H-pyrrolo[2,3-c]pyridin-7-one] | < 100 | < 100
C[C@H]1CCCN(Cc2cc3c(C4CC4)cn(-c4cccc(C5(c6nnco6)CC(F)(F)C5)c4)c(=O)c3[nH]2)C1 [Example 121, 4-cyclopropyl-6-[3-[3,3-difluoro-1-(1,3,4-oxadiazol-2-yl)cyclobutyl]phenyl]-2-[[(3S)-3-methylpiperidin-1-yl]methyl]-1H-pyrrolo[2,3-c]pyridin-7-one] | 100 to 1000 | 100 to 1000
CC1CC(c2cccc(-n3cc(C4CC4)c4cc(CNCCOC(F)(F)F)[nH]c4c3=O)c2)(c2nncn2C)C1 (stereo not drawn) [Example 46, 4-cyclopropyl-6-{3-[3-methyl-1-(4-methyl-4H-1,2,4-triazol-3-yl)cyclobutyl]phenyl}-2-({[2-(trifluoromethoxy)ethyl]amino}methyl)-1H,6H,7H-pyrrolo[2,3-c]pyridin-7-one] | 100 to 1000 | < 100

Continued, values first:

EC50 (Jurkat cells) [nM] | IC50 (Cbl-b) [nM] | SMILES
< 100 | < 100 | C[C@H]1CCCN(Cc2cc3c(C4CC4)cn(-c4cccc([C@]5(c6nncn6C)C[C@@H](OC(F)F)C5)c4)c(=O)c3[nH]2)C1 [Example 96, cis-4-cyclopropyl-6-[3-[3-(difluoromethoxy)-1-(4-methyl-1,2,4-triazol-3-yl)cyclobutyl]phenyl]-2-[[(3S)-3-methylpiperidin-1-yl]methyl]-1H-pyrrolo[2,3-c]pyridin-7-one]
< 100 | < 100 | CC1CC(c2cccc(-n3cc(C4CC4)c4cc(CN[C@@H]5CCCOC5)[nH]c4c3=O)c2)(c2nncn2C)C1 (stereo partly drawn) [Example 49, 4-cyclopropyl-6-{3-[3-methyl-1-(4-methyl-4H-1,2,4-triazol-3-yl)cyclobutyl]phenyl}-2-{[(oxan-3-yl)amino]methyl}-1H,6H,7H-pyrrolo[2,3-c]pyridin-7-one]
100 to 1000 | < 100 | CC1CC(c2cccc(-n3cc(C4CC4)c4cc(CN5CCC[C@H](F)C5)[nH]c4c3=O)c2)(c2nncn2C)C1 (stereo partly drawn) [Example 64, 4-cyclopropyl-2-{[(3S)-3-fluoropiperidin-1-yl]methyl}-6-{3-[(1r,3s)-3-methyl-1-(4-methyl-4H-1,2,4-triazol-3-yl)cyclobutyl]phenyl}-1H,6H,7H-pyrrolo[2,3-c]pyridin-7-one]
< 100 | < 100 | CC1CC(c2cccc(-n3cc(C4CC4)c4cc(CN5CC6CCC5C6)[nH]c4c3=O)c2)(c2nncn2C)C1 (stereo not drawn) [Example 52, 2-({2-azabicyclo[2.2.1]heptan-2-yl}methyl)-4-cyclopropyl-6-{3-[3-methyl-1-(4-methyl-4H-1,2,4-triazol-3-yl)cyclobutyl]phenyl}-1H,6H,7H-pyrrolo[2,3-c]pyridin-7-one]
100 to 1000 | < 100 | CO[C@H]1C[C@](c2cccc(-n3cc(C4CC4)c4cc(CN5CCC6(CC6)C5)[nH]c4c3=O)c2)(c2nncn2C)C1 [Example 100]
100 to 1000 | < 100 | CC1CC(c2cccc(-n3cc(C4CC4)c4cc(CN[C@@H]5COC[C@@H]5O)[nH]c4c3=O)c2)(c2nncn2C)C1 (stereo partly drawn) [Example 40, 4-cyclopropyl-2-({[(3R,4R)-4-hydroxyoxolan-3-yl]amino}methyl)-6-{3-[3-methyl-1-(4-methyl-4H-1,2,4-triazol-3-yl)cyclobutyl]phenyl}-1H,6H,7H-pyrrolo[2,3-c]pyridin-7-one]
